These results are taken from patent US20050158371A1, “Novel external agent” (Sumitomo Pharmaceuticals Co., Ltd., priority 2002, published 2005).

A short description of this series: Serum concentration of leflunomide after transdermal or oral administration to adjuvant arthritis rats, LC-MS/MS (Experimental Example 5B). The series is classed as in vivo. Conditions: rat, leflunomide in serum, single oral administration 20 mg/kg. On the procedure: The dosage form for external application of leflunomide as shown in Example was administered once to adjuvant arthritis rats prepared in the same manner as in Experimental Example 1B and the concentration of leflunomide in serum was measured using LC-MS/MS. In addition, the concentration in serum on simultaneous oral administration of leflunomide once (20 mg/kg) was measured and compared.

For `Cc1oncc1C(=O)Nc1ccc(C(F)(F)F)cc1` [leflunomide, N-(4′-trifluoromethylphenyl)-5-methylisoxazole-4-carboxamide], where the note is “read-out: AUC, area under the drug concentration-time curve [AUC(0−T)]”, the AUC(0-t) was determined as 600 ng·h/mL. Further, for the setting “read-out: Cmax, maximum drug concentration”, the Cmax stood at 502 ng/mL. The Tmax (read-out: tmax, times to reach maximum drug concentration) was 30 min.
